# Experimental data taken from patent publication US20260125382A1, “COMPOUNDS FOR INHIBITING OR DEGRADING CDK2 AND/OR CDK9 AND MEDICINAL USE THEREOF” (KOREA RESEARCH INSTITUTE OF CHEMICAL TECHNOLOGY, priority 2022, published 2026).
# Experiments:
# [1] = molecular target: T1, CDK2 (Homo sapiens, UniProt P24941); assay: CDK protein degradation activity (Western blotting), CDK2; type: cell-based; conditions: MDA-MB-231 cells, 16 hours, Western blot
# T1 construct: endogenous in cells; host or cells: MDA-MB-231
# Outline: (§1)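 MDA-MB-231; cmpd 100 nM / 1 μM / 10 μM final vs DMSO, 16 h. Triton X-100 lysates (pH 7.5, phosphatase/protease inhibitors) → SDS-PAGE → Western blot, anti-CDK2, anti-CDK9, tubulin loading control; densitometry.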
# [2] = molecular target: T2, CDK9 (Homo sapiens, UniProt P50750); assay: CDK protein degradation activity (Western blotting), CDK9; type: cell-based; conditions: MDA-MB-231 cells, 16 hours, Western blot
# T2 construct: endogenous in cells; host or cells: MDA-MB-231
# Outline: as §1
# T2 sequence (P50750 whole entry): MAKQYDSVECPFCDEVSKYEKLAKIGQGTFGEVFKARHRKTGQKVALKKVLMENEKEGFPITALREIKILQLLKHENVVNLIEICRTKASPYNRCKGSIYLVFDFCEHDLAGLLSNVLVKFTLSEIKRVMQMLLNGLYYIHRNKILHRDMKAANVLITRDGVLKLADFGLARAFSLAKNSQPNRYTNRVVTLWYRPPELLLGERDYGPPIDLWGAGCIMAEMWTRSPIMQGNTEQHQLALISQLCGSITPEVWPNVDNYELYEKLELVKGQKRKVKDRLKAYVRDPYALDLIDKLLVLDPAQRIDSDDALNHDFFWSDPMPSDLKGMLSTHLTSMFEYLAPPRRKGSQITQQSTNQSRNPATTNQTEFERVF
Enzyme degradation CDK2 (% remaining) @ 0.1 μM [1],Enzyme degradation CDK2 (% remaining) @ 1 μM [1],Enzyme degradation CDK2 (% remaining) @ 10 μM [1],Enzyme degradation CDK9 (% remaining) @ 0.1 μM [2],Enzyme degradation CDK9 (% remaining) @ 1 μM [2],Enzyme degradation CDK9 (% remaining) @ 10 μM [2],Structure (SMILES)
20%,10%,10%,10/10/10%,10/10/10%,10/10/10%,"O=C1CC[C@H](N2C(=O)c3cc(F)c(N4CCC(CN5CCN(c6ccc(Nc7ncnc8c7ncn8[C@H]7C[C@@H](NC(=O)c8cccc(Cl)n8)C7)cc6)CC5)CC4)cc3C2=O)C(=O)N1 [Compound 416, 6-chloro-N-((1s,3s)-3-(6-((4-(4-((1-(2-(2,6-dioxopiperidin-3-yl)-6-fluoro-1,3-dioxoisoindolin-5-yl)piperidin-4-yl)methyl)piperazin-1-yl)phenyl)amino)-9H-purin-9-yl)cyclobutyl)picolinamide]"
10/10/10%,10/10/10%,10/10/10%,0/0/0%,0/0/0%,0/0/0%,"O=C1CC[C@H](N2C(=O)c3cccc(NCC(=O)N4CCC(CN5CCN(c6ccc(Nc7ncnc8c7ncn8C7CC(NC(=O)c8cccc(Cl)n8)C7)cc6)CC5)CC4)c3C2=O)C(=O)N1 (stereo partly drawn) [Compound 419, 6-chloro-N-((1s,3s)-3-(6-((4-(4-((1-((2-(2,6-dioxopiperidin-3-yl)-1,3-dioxoisoindolin-4-yl)glycyl)piperidin-4-yl)methyl)piperazin-1-yl)phenyl)amino)-9H-purin-9-yl)cyclobutyl)picolinamide]"
60/60/60%,60/60/60%,60/60/60%,0/0/0%,0/0/0%,0/0/0%,"O=C1CC[C@H](N2C(=O)c3ccc(N4CCC(C(=O)N5CCC(CN6CCC(CCNc7ncnc8c7ncn8[C@H]7C[C@@H](NC(=O)Cc8ccccc8)C7)CC6)CC5)CC4)cc3C2=O)C(=O)N1 [Compound 421, N-((1s,3s)-3-(6-((2-(1-((1-(1-(2-(2,6-dioxopiperidin-3-yl)-1,3-dioxoisoindolin-5-yl)piperidin-4-carbonyl)piperidin-4-yl)methyl)piperidin-4-yl)ethyl)amino)-9H-purin-9-yl)cyclobutyl)-2-phenylacetamide]"
30%,20%,20%,20%,10%,10%,"O=C1CC[C@H](N2C(=O)c3ccc(N4CCC(CN5CCC(CCNc6ncnc7c6ncn7C6CC(NC(=O)Cc7ccccc7)C6)CC5)CC4)cc3C2=O)C(=O)N1 (stereo partly drawn) [Compound 423, N-((1s,3s)-3-(6-((2-(1-((1-(2-(2,6-dioxopiperidin-3-yl)-1,3-dioxoisoindolin-5-yl)piperidin-4-yl)methyl)piperidin-4-yl)ethyl)amino)-9H-purin-9-yl)cyclobutyl)-2-phenylacetamide]"
10%,10%,30%,0%,0%,20%,"O=C1CC[C@H](N2C(=O)c3cccc(CCCN4CCC(CN5CCN(c6ccc(Nc7ncnc8c7ncn8C7CC(NC(=O)c8cccc(C(F)(F)F)n8)C7)cc6)CC5)CC4)c3C2=O)C(=O)N1 (stereo partly drawn) [Compound 426, N-((1s,3s)-3-(6-((4-(4-((1-(3-(2-(2,6-dioxopiperidin-3-yl)-1,3-dioxoisoindolin-4-yl)propyl)piperidin-4-yl)methyl)piperazin-1-yl)phenyl)amino)-9H-purin-9-yl)cyclobutyl)-6-(trifluoromethyl)picolinamide]"
20/20/20%,20/20/20%,20/20/20%,0%,0%,20%,"O=C1CC[C@H](N2C(=O)c3cccc(CCCCN4CCC(CN5CCN(c6ccc(Nc7ncnc8c7ncn8[C@H]7C[C@@H](NC(=O)c8cccc(C(F)(F)F)n8)C7)cc6)CC5)CC4)c3C2=O)C(=O)N1 [Compound 427, N-((1s,3s)-3-(6-((4-(4-((1-(4-(2-(2,6-dioxopiperidin-3-yl)-1,3-dioxoisoindolin-4-yl)butyl)piperidin-4-yl)methyl)piperazin-1-yl)phenyl)amino)-9H-purin-9-yl)cyclobutyl)-6-(trifluoromethyl)picolinamide]"
10/10/10%,10/10/10%,10/10/10%,0/0/0%,0/0/0%,0/0/0%,"O=C1CC[C@H](N2C(=O)c3cc(F)c(N4CCC(CN5CCN(c6ccc(Nc7ncnc8c7ncn8C7CC(NC(=O)c8cccc(F)n8)C7)cc6)CC5)CC4)cc3C2=O)C(=O)N1 (stereo partly drawn) [Compound 428, N-((1s,3s)-3-(6-((4-(4-((1-(2-(2,6-dioxopiperidin-3-yl)-6-fluoro-1,3-dioxoisoindolin-5-yl)piperidin-4-yl)methyl)piperazin-1-yl)phenyl)amino)-9H-purin-9-yl)cyclobutyl)-6-fluoropicolinamide]"

# The next lines start with the compound.
Structure (SMILES),Enzyme degradation CDK2 (% remaining) @ 0.1 μM [1],Enzyme degradation CDK2 (% remaining) @ 1 μM [1],Enzyme degradation CDK2 (% remaining) @ 10 μM [1],Enzyme degradation CDK9 (% remaining) @ 0.1 μM [2],Enzyme degradation CDK9 (% remaining) @ 1 μM [2],Enzyme degradation CDK9 (% remaining) @ 10 μM [2]
"O=C1CC[C@H](n2nnc3ccc(N4CCC(CN5CCN(c6ccc(Nc7ncnc8c7ncn8C7CC(NC(=O)c8cccc(Cl)n8)C7)cc6)CC5)CC4)cc3c2=O)C(=O)N1 (stereo partly drawn) [Compound 417, 6-chloro-N-((1s,3s)-3-(6-((4-(4-((1-(3-(2,6-dioxopiperidin-3-yl)-4-oxo-3,4-dihydrobenzo[d][1,2,3]triazin-6-yl)piperidin-4-yl)methyl)piperazin-1-yl)phenyl)amino)-9H-purin-9-yl)cyclobutyl)picolinamide]",10%,0%,0%,10/10/10%,10/10/10%,10/10/10%
"N#Cc1cccc(C(=O)N[C@H]2C[C@@H](n3cnc4c(Nc5ccc(N6CCN(CC7CCN(C(=O)CNc8cccc9c8C(=O)N(C8CCC(=O)NC8=O)C9=O)CC7)CC6)cc5)ncnc43)C2)n1 (stereo partly drawn) [Compound 420, 6-cyano-N-((1s,3s)-3-(6-((4-(4-((1-((2-(2,6-dioxopiperidin-3-yl)-1,3-dioxoisoindolin-4-yl)glycyl)piperidin-4-yl)methyl)piperazin-1-yl)phenyl)amino)-9H-purin-9-yl)cyclobutyl)picolinamide]",10/10/10%,10/10/10%,10/10/10%,0/0/0%,0/0/0%,0/0/0%
"O=C1CC[C@H](n2nnc3ccc(N4CCC(CN5CCN(c6ccc(Nc7ncnc8c7ncn8[C@H]7C[C@@H](NC(=O)c8cccc(C(F)(F)F)n8)C7)cc6)CC5)CC4)cc3c2=O)C(=O)N1 [Compound 424, N-((1s,3s)-3-(6-((4-(4-((1-(3-(2,6-dioxopiperidin-3-yl)-4-oxo-3,4-dihydrobenzo[d][1,2,3]triazin-6-yl)piperidin-4-yl)methyl)piperazin-1-yl)phenyl)amino)-9H-purin-9-yl)cyclobutyl)-6-(trifluoromethyl)picolinamide]",10/10/10%,10/10/10%,10/10/10%,0/0/0%,0/0/0%,0/0/0%
"O=C1CC[C@H](N2C(=O)c3cccc(NCC(=O)N4CCC(CN5CCN(c6ccc(Nc7ncnc8c7ncn8[C@H]7C[C@@H](NC(=O)c8cccc(C(F)(F)F)n8)C7)cc6)CC5)CC4)c3C2=O)C(=O)N1 [Compound 425, N-((1s,3s)-3-(6-((4-(4-((1-((2-(2,6-dioxopiperidin-3-yl)-1,3-dioxoisoindolin-4-yl)glycyl)piperidin-4-yl)methyl)piperazin-1-yl)phenyl)amino)-9H-purin-9-yl)cyclobutyl)-6-(trifluoromethyl)picolinamide]",0/0/0%,0/0/0%,0/0/0%,0/0/0%,0/0/0%,0/0/0%
"O=C1CC[C@H](n2nnc3ccc(N4CCC(CN5CCN(c6ccc(Nc7ncnc8c7ncn8C7CC(NC(=O)c8cccc(F)n8)C7)cc6)CC5)CC4)cc3c2=O)C(=O)N1 (stereo partly drawn) [Compound 429, N-((1s,3s)-3-(6-((4-(4-((1-(3-(2,6-dioxopiperidin-3-yl)-4-oxo-3,4-dihydrobenzo[d][1,2,3]triazin-6-yl)piperidin-4-yl)methyl)piperazin-1-yl)phenyl)amino)-9H-purin-9-yl)cyclobutyl)-6-fluoropicolinamide]",10/10/10%,10/10/10%,10/10/10%,0/0/0%,0/0/0%,0/0/0%
